By inhibition is commonly meant how much of the control response was suppressed. What is called logP is a log measure of how a compound divides between an organic and an aqueous phase. One may read the IC50 as the concentration that gives 50% inhibition.

Read-outs that look alike come from different tables or passages of the source.

Data set [1] addresses eqBuChE (Equus caballus, UniProt P81908). Briefly: BuChE inhibition (Ellman's procedure). It counts as biochemical. Particulars: for inhibition at 100 µM: read-out: Percentage Inhibition BuChE. Here is the method:
(§1) The abilities of compounds to inhibit AChE and BuChE activity were determined following Ellman’s procedure, with AChI and BuChI as the enzyme substrate, respectively, and DTNB as a chromogenic reagent. AChE’s and BuChE’s working solutions were prepared at 20 mM TRIS and deionized water, respectively. AChI and BuChI solutions were prepared in deionized water. A 0.01 M DTNB solution was prepared with 0.1 M phosphate buffer (pH 7) containing 0.15% (w/v) sodium bicarbonate. Stock solutions (10 mM) of investigated compounds were prepared daily by dissolving solid compounds in DMSO. The reaction mixture containing phosphate buffer, DTNB, enzyme, and compound was preincubated 30 min at 37 °C. After the preincubation time, the enzyme reaction was initiated by adding appropriate substrate and left to incubate for 6 min. After incubation, 0.1 M SDS was added to stop the reaction. Absorbance measurements were performed using a UV/Vis spectrophotometer (Lambda 35, Perkin Elmer), measuring absorbance at 412 nm. A blank assay, containing all components except the enzyme, was used to account for non-enzyme reactions. The control solution contained all components except the inhibitor. All experiments were conducted in triplicate, and the results are expressed as the mean percentage enzyme activity compared to the control value. IC50 values were determined graphically using Origin 9 Microsoft Windows.
For orientation: DTNB colorimetry detects thiols as they appear.

The target in data set [2] is eeAChE (Electrophorus electricus, UniProt O42275). The experiment in a line: biochemical. As to conditions: read-out: Percentage Inhibition AChE. Here is the method: as §1, with “A 0.01 M DTNB solution was prepared with 0.1 M phosphate buffer (pH 7) containing 0.15% (w/v) sodium bicarbonate.” left out, “Absorbance measurements were performed using a UV/Vis spectrophotometer (Lambda 35, Perkin Elmer), measuring absorbance at 412 nm.” left out
Chain of eeAChE (O42275 24-633): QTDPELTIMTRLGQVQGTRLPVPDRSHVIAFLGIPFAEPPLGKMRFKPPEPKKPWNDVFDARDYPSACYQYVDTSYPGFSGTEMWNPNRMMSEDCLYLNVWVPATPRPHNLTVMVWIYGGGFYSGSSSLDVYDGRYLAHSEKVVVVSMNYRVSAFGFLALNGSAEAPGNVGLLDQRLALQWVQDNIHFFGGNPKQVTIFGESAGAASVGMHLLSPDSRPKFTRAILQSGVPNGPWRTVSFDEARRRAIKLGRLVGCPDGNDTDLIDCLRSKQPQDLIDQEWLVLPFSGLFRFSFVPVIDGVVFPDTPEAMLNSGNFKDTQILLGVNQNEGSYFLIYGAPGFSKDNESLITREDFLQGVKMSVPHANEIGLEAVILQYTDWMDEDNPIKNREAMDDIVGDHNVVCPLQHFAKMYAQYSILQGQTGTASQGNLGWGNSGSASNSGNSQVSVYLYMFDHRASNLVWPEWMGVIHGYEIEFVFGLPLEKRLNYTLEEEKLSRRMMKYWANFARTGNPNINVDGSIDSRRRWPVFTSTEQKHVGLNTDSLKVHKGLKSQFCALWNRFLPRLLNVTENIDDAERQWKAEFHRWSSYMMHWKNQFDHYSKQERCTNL

A short description of data set [3]: DPPH radical scavenging assay. As to conditions: for antioxidative ability (DPPH): 0.01, 0.1 and 1 mM, 30 min; for IC50: 30 min incubation, 25 °C. Here is the method: DPPH (2,2-diphenyl-1-picrylhydrazyl) radical scavenging assay was used to assess free-radical scavenging activity of synthesized compounds. Initially, 1 × 10^−4 M working solution of DPPH was prepared, and 350 µL was added to 350 µL of the solution of each compound. The final concentrations of the compounds (Q, 2a, and 2b) in the samples were 1 × 10^−3 M, 1 × 10^−4 M, and 1 × 10^−5 M. The control included ethanol only and DPPH–ethanol solution without compounds. The mixtures were incubated at 25 °C in the dark for 30 min. After incubation, the absorbance of the samples at 517 nm was measured in duplicate by using a UV/Vis spectrophotometer (Lambda 35, Perkin Elmer, Waltham, MA, USA). The DPPH radical scavenging ability was calculated using the following equation:(1) Antioxidative activity(%)=Acontrol−Asample/Acontrol×100% where Asample and Acontrol represent the absorbance at 517 nm of the sample and control, respectively. All samples were analysed in duplicate.
(DPPH is a stable violet radical that fades when it is reduced.)

Data set [4] can be described thus: physchem. It counts as physicochemical. As to conditions: shake flask, n-octanol/water, 25 °C, 1 × 10^−4 M; read-out: logP, experimentally obtained. Here is the method: To measure the lipophilicity (expressed as the partition coefficient) of the synthesized compounds and their constituents, using a “shake-flask” method, a two-phase system composed of n-octanol and deionized water was used. The stock solutions of the compounds were diluted with water to the concentration of 1 × 10^−4 M, and this solution was used for further investigation. […] The concentration of the compounds was calculated from their extinction coefficient at 260 nm that was previously determined.

Data set [5] has as its target Na^+, K^+-ATPase. Particulars: cited from earlier work.
The subject of data set [6] is MDA-MB-468 cells. Briefly: SRB assay, MDA-MB-468 cells. It counts as cell-based, human. As to conditions: Homo sapiens, MDA-MB-468, 72 h, read-out: IC50 MDA-468. Here is the method: (§2) Two human breast cancer cell lines, MDA-MB-231 (HTB-26) and MDA-MB-468 (HTB-132), human cervical cancer cell line HeLa (CCL-2), and MRC-5 (CCL-171) fibroblasts were purchased from the American Type Culture Collection (ATCC, Manassas, VA, USA). All cell lines were cultured in Dulbecco’s Modified Eagle’s Medium (DMEM) with 4500 mg/L glucose and L-glutamine (Capricorn Scientific, Ebsdorfergrund, Germany), supplemented with 10% foetal bovine serum (PAN-Biotech, Aidenbach, Germany), 10,000 U/mL penicillin, and 10 mg/mL streptomycin solution (Capricorn Scientific) under standard conditions at 37 °C in a humidified 5% CO2 atmosphere (ESCO, Lifesciences Group, Singapore).
(§3) Cells were seeded on a 96-well plate (Thermo Fisher Scientific, Waltham, MA, USA) at 2 × 10^3 cells per well in DMEM medium. For the analysis of the concentration- and time-dependent effect of the analysed compounds, cell monolayers were treated 24 h after seeding with concentrations 1 × 10^−6, 1 × 10^−5, and 1 × 10^−4 M for 24, 48, or 72 h. Cell viability was detected using sulforhodamine B (SRB) assay, based on the staining of cellular proteins. The assay was performed according to the procedure described by Skehan et al.. The cells were fixed with 10% trichloroacetic acid (TCA, CARLO ERBA Reagents GmbH, Emmendingen, Germany) for 1 h at 4 °C, washed with water, and stained for 15 min with 0.4% SRB (Sigma-Aldrich Chemie GmbH, Steinheim, Germany) in 1% acetic acid. The unbound SRB dye was rinsed with 1% acetic acid, while the protein-bound dye was extracted with a 10 mM Tris base (Sigma-Aldrich). The absorbance was measured at 550 nm with a reference wavelength of 690 nm in a microplate reader (Wallac, VICTOR2 1420 Multilabel counter, PerkinElmer, Turku, Finland). The results were expressed as a percentage of the control, where the cell growth of the control is set to 100%. IC50, defined as the concentration that caused a 50% loss of cell growth, was calculated by non-linear regression analysis with the ED50plus v1.0 software. The selectivity index (SI) was determined according to the following formula:(2) SI=IC50 for fibroblast cell line/IC50 for tumour cell line
(§4) The assay was performed two times in 4 replicates for every experimental group. The statistical significance of differences between treated and untreated cells was estimated by the independent Student’s t-test, with the level of significance set at p < 0.05.
In general terms: Sulforhodamine B stains cellular protein and so reports cell mass.

The subject of data set [7] is HeLa cells. Briefly: SRB assay, HeLa cells. As to conditions: Homo sapiens, HeLa, 72 h, read-out: IC50 HeLa. It counts as cell-based. Here is the method:
(§5) All cell lines were cultured in Dulbecco’s Modified Eagle’s Medium (DMEM) with 4500 mg/L glucose and L-glutamine (Capricorn Scientific, Ebsdorfergrund, Germany), supplemented with 10% foetal bovine serum (PAN-Biotech, Aidenbach, Germany), 10,000 U/mL penicillin, and 10 mg/mL streptomycin solution (Capricorn Scientific) under standard conditions at 37 °C in a humidified 5% CO2 atmosphere (ESCO, Lifesciences Group, Singapore).
as §3, with “The absorbance was measured at 550 nm with a reference wavelength of 690 nm in a microplate reader (Wallac, VICTOR2 1420 Multilabel counter, PerkinElmer, Turku, Finland).” left out, “IC50, defined as the concentration that caused a 50% loss of cell growth, was calculated by non-linear regression analysis with the ED50plus v1.0 software.” left out
as §4

The subject of data set [8] is MDA-MB-231 cells. The experiment in a line: SRB assay, MDA-MB-231 cells. As to conditions: Homo sapiens, MDA-MB-231, 72 h, read-out: IC50 MDA-231. It counts as cell-based. The procedure:
as §5
as §3, with “The absorbance was measured at 550 nm with a reference wavelength of 690 nm in a microplate reader (Wallac, VICTOR2 1420 Multilabel counter, PerkinElmer, Turku, Finland).” left out, “IC50, defined as the concentration that caused a 50% loss of cell growth, was calculated by non-linear regression analysis with the ED50plus v1.0 software.” left out
as §4

Data set [9] deals with MRC-5 cells. Briefly: SRB assay, MRC-5 cells. It counts as cell-based. As to conditions: Homo sapiens, MRC5, 72 h, read-out: IC50 MRC. Here is the method:
as §2
Cells were seeded on a 96-well plate (Thermo Fisher Scientific, Waltham, MA, USA) at 2 × 10^3 cells per well in DMEM medium. For the analysis of the concentration- and time-dependent effect of the analysed compounds, cell monolayers were treated 24 h after seeding with concentrations 1 × 10^−6, 1 × 10^−5, and 1 × 10^−4 M for 24, 48, or 72 h. Cell viability was detected using sulforhodamine B (SRB) assay, based on the staining of cellular proteins. The assay was performed according to the procedure described by Skehan et al.. The cells were fixed with 10% trichloroacetic acid (TCA, CARLO ERBA Reagents GmbH, Emmendingen, Germany) for 1 h at 4 °C, washed with water, and stained for 15 min with 0.4% SRB (Sigma-Aldrich Chemie GmbH, Steinheim, Germany) in 1% acetic acid. The unbound SRB dye was rinsed with 1% acetic acid, while the protein-bound dye was extracted with a 10 mM Tris base (Sigma-Aldrich). The absorbance was measured at 550 nm with a reference wavelength of 690 nm in a microplate reader (Wallac, VICTOR2 1420 Multilabel counter, PerkinElmer, Turku, Finland). The results were expressed as a percentage of the control, where the cell growth of the control is set to 100%. […] The selectivity index (SI) was determined according to the following formula:(2) SI=IC50 for fibroblast cell line/IC50 for tumour cell line […]

Chain of eqBuChE (P81908 whole entry): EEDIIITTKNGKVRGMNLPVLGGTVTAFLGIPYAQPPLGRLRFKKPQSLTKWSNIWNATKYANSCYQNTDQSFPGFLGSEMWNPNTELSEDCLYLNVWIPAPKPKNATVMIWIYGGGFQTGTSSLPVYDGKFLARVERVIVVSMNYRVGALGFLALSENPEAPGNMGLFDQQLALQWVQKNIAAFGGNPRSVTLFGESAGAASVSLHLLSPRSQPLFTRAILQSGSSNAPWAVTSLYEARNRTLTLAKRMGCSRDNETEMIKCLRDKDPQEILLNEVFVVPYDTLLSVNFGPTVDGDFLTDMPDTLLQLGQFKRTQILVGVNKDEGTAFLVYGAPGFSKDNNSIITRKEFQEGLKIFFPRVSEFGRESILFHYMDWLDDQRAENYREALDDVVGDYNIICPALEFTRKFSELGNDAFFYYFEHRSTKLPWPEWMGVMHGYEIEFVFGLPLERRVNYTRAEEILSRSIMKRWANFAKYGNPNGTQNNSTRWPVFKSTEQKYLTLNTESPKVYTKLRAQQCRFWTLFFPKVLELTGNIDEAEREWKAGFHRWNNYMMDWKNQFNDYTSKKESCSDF

For `COc1cc2c(cc1OC)CNCC2` [Compound 1b, 6,7-dimethoxy-1,2,3,4-tetrahydroisoquinoline, reference compound], the inhibition at 100 µM is 17.7% in data set [1] and 14.1% in data set [2]. The “antioxidative ability (DPPH)” value in [3] is “did not show antioxidative ability”. Further, in data set [4], the log partition coefficient (logP) at 30 min worked out at 1.14.
`O=C1O[C@H]([C@@H](O)CO)C(O)=C1O` [Ascorbic acid] registered an IC50 in [3] of 0.62 µM.
For the molecule `c1ccc2c(c1)CCNC2` [Compound 1a, 1,2,3,4-tetrahydroisoquinoline, reference compound], the inhibition at 100 µM in [1] and in data set [2] was 2% in each case. In addition, the IC50 in data set [5] (literature value ref 35) was 25000 µM. In addition, the “antioxidative ability (DPPH)” value in data set [3] is “did not show antioxidative ability”. Further, the log partition coefficient (logP) at 30 min in [4] worked out at 1.4.
`O=c1c(O)c(-c2ccc(O)c(O)c2)oc2cc(O)cc(O)c12` [Quercetin, reference compound]: the IC50 was 22.1 µM in [1]; 65.9 ± 3.3 µM in data set [6]; 46.3 µM in data set [5] (literature value ref 36); 19.3 µM in [3]; 15.1 ± 2.67 µM in data set [7]; 76.6 ± 3.8 µM in data set [8]. The half-maximal inhibitory concentration (IC50) in data set [9] turned out to be 10.4 ± 0.52 µM. Moreover, the inhibition at 100 µM came to 72% in [1] and 58% in data set [2].
